Consider 15 compounds from ChEMBL document CHEMBL2311360 (J Med Chem, 2013).

The test system of one assay is HCT-116/VM46. The assay can be described thus: Cytotoxicity against human vinblastine-resistant HCT116/VM46 cells assessed as growth inhibition after 72 hrs by phosphatase assay. The class given is functional, cell-based. The note with it: HCT-116/VM46, 72 h.
In another assay the test system is L1210. The assay can be described thus: Cytotoxicity against mouse L1210 cells assessed as growth inhibition after 72 hrs by phosphatase assay. The class given is functional, cell-based. Conditions: L1210, 72 h.
A further assay has as its system HCT-116. The assay can be described thus: Cytotoxicity against human HCT116 cells assessed as growth inhibition after 72 hrs by phosphatase assay. Type of assay: functional, cell-based. Conditions: HCT-116, 72 h.
Another assay addresses Tubulin (Sus scrofa) (UniProt P02554+P02550). The assay can be described thus: Displacement of [3H]Vinblastine from pig tubulin at 7.2 x 10^-5 M after 60 mins. The class given is protein assay. A general note: In a radioligand displacement assay an active substance lowers the binding of a labelled ligand.

For orientation: IC50 means the point on the concentration scale where inhibition reaches its midpoint. The inhibition is the drop in the measured response relative to a control, in per cent. A high value points to a strong effect.

Tubulin (Sus scrofa), sequence (P02550 whole entry, looked up): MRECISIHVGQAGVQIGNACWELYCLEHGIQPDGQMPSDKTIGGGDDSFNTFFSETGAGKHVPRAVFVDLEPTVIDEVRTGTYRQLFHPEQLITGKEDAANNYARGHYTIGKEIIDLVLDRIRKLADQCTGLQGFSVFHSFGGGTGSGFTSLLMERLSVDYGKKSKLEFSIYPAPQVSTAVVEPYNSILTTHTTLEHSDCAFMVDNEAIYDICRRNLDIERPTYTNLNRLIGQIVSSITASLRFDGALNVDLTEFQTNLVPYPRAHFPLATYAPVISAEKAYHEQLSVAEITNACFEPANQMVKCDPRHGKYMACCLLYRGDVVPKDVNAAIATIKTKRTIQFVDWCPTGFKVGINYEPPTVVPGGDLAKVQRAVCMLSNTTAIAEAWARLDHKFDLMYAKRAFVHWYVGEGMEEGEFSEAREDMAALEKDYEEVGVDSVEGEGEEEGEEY
Tubulin (Sus scrofa), sequence (P02554 whole entry, looked up): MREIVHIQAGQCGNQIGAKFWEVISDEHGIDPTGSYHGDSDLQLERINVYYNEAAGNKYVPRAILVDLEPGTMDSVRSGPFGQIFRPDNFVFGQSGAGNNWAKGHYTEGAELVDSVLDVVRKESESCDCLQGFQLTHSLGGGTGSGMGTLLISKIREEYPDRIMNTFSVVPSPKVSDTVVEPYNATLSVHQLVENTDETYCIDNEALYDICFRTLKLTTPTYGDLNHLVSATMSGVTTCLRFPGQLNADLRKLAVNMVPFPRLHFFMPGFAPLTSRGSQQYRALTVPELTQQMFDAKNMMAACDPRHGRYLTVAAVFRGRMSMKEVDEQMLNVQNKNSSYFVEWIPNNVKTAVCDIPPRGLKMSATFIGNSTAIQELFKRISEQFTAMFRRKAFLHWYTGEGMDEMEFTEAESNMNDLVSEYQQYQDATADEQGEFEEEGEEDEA

For the compound `CC[C@]1(O)C[C@H]2CN(CCc3c([nH]c4ccccc34)[C@@](C(=O)OC)(c3cc4c(cc3OC)N(C)[C@@H]3[C@]45CCCN4CCC[C@@](CC)(C[C@]3(O)C(=O)OC)[C@H]45)C2)C1`, the IC50 in the assay on HCT-116/VM46 is above 10000 nM; in the assay with L1210, 5700 nM; in the assay on HCT-116, 7400 nM.

Turning to `CC[C@]1(O)C[C@H]2CN(CCc3c([nH]c4ccccc34)[C@@](C(=O)OC)(c3cc4c(cc3OC)N(C)[C@@H]3[C@]45CCCN4CC=C[C@@](CC)(C[C@]3(O)C(=O)OC)[C@@H]45)C2)C1`, the results for the 50% inhibitory concentration (IC50) with HCT-116/VM46, in the assay with L1210 and in the assay with HCT-116 were 730 nM, 65 nM and 100 nM, respectively.

Consider `CC[C@]1(O)C[C@H]2CN(CCc3c([nH]c4ccccc34)[C@@](C(=O)OC)(c3cc4c(cc3OC)N(C)[C@H]3[C@@](O)(C(=O)OC)[C@@H](OC(C)=O)[C@]5(CC)C=CCN6CC[C@]43[C@@H]65)C2)C1`, for which the values for the IC50 with HCT-116/VM46, in the assay on L1210 and with HCT-116 were 8400 nM, 75 nM and 80 nM, respectively.

In the case of `CC[C@]1(O)C[C@H]2CN(CCc3c([nH]c4ccccc34)[C@@](C(=O)OC)(c3cc4c(cc3OC)N(C)[C@@H]3[C@]45CCCN4CCC[C@@](CC)(C[C@]3(O)C(=O)OC)[C@@H]45)C2)C1`, the results for the IC50 with HCT-116/VM46, in the assay on L1210 and in the assay on HCT-116 were 900 nM, 55 nM and 80 nM, respectively.

With `CC[C@]1(O)C[C@H]2CN(CCc3c([nH]c4ccccc34)[C@@](C(=O)OC)(c3cc4c(cc3OC)N(C)[C@H]3[C@@](O)(C(=O)OC)[C@H](OC(C)=O)[C@]5(CC)CCN6CC[C@]43[C@@H]65)C2)C1`, the results for the IC50 in the assay with HCT-116/VM46, in the assay with L1210 and in the assay on HCT-116 were 7800 nM, 560 nM and 80 nM, respectively.

For `CC[C@]1(O)C[C@@H]2CN(CCc3c([nH]c4ccccc34)[C@@](C(=O)OC)(c3cc4c(cc3OC)N(C)[C@H]3[C@@](O)(C(=O)OC)[C@H](OC(C)=O)[C@]5(CC)C=CCN6CC[C@]43[C@@H]65)C2)C1`, the inhibition on Tubulin (Sus scrofa) was 50%.

Take `CC[C@]1(O)C[C@H]2CN(CCc3c([nH]c4ccccc34)[C@@](C(=O)OC)(c3cc4c(cc3OC)N(C)[C@H]3[C@@](O)(C(=O)OC)[C@@H](OC(C)=O)[C@]5(CC)CCN6CCC[C@]43[C@@H]65)C2)C1`: the half-maximal inhibitory concentration (IC50) with HCT-116/VM46 stood at 7600 nM; with L1210, 600 nM; with HCT-116, 680 nM.

For the compound `CC[C@]1(O)C[C@H]2CN(CCc3c([nH]c4ccccc34)[C@@](C(=O)OC)(c3cc4c(cc3OC)N(C)[C@@H]3[C@]45CCCN4CC=C[C@@](CC)(C[C@]3(O)C(=O)OC)[C@H]45)C2)C1`, the figures for the concentration for half-maximal inhibition (IC50) in the assay with HCT-116/VM46, with L1210 and with HCT-116 were 5700 nM, 370 nM and 430 nM, respectively. On Tubulin (Sus scrofa), this compound registered an inhibition of 68.5%.

Consider `CCC1=C[C@H]2CN(CCc3c([nH]c4ccccc34)[C@@](C(=O)OC)(c3cc4c(cc3OC)N(C)[C@H]3[C@@](O)(C(=O)OC)[C@H](OC(C)=O)[C@]5(CC)CCCN6CC[C@]43[C@@H]65)C2)C1`, for which the IC50 was 3500 nM with HCT-116/VM46, 740 nM in the assay on L1210 and 890 nM with HCT-116.

As for `CC[C@]1(O)C[C@H]2CN(CCc3c([nH]c4ccccc34)[C@@](C(=O)OC)(c3cc4c(cc3OC)N(C)[C@H]3[C@@](O)(C(=O)OC)[C@H](OC(C)=O)[C@]5(CC)CCCN6CC[C@]43[C@@H]65)C2)C1`, the half-inhibitory concentration (IC50) worked out at 4500 nM in the assay with HCT-116/VM46, 570 nM with L1210 and 370 nM in the assay on HCT-116. Besides, the inhibition on Tubulin (Sus scrofa) was found to be 77.4%.

Turning to `CCC1=C[C@@H]2CN(C1)Cc1c([nH]c3ccccc13)[C@@](C(=O)OC)(c1cc3c(cc1OC)N(C)[C@H]1[C@@](O)(C(=O)OC)[C@H](OC(C)=O)[C@]4(CC)C=CCN5CC[C@]31[C@@H]54)C2` [VINORELBINE], the IC50 in the assay with HCT-116/VM46 was found to be 600 nM; in the assay on L1210 it was 65 nM; with HCT-116 it was 75 nM.

With `CCC1=C[C@H]2CN(CCc3c([nH]c4ccccc34)[C@@](C(=O)OC)(c3cc4c(cc3OC)N(C)[C@H]3[C@@](O)(C(=O)OC)[C@H](OC(C)=O)[C@]5(CC)CCN6CC[C@]43[C@@H]65)C2)C1`, the IC50 amounted to 7000 nM in the assay with HCT-116/VM46, 700 nM in the assay on L1210 and 630 nM in the assay on HCT-116.

For `CC[C@]1(O)C[C@H]2CN(CCc3c([nH]c4ccccc34)[C@@](C(=O)OC)(c3cc4c(cc3OC)N(C)[C@@H]3[C@]45CCN4CC=C[C@@](CC)(C[C@]3(O)C(=O)OC)[C@H]45)C2)C1`, the IC50 in the assay on HCT-116/VM46 turned out to be 660 nM; in the assay on L1210 it was 60 nM; in the assay on HCT-116, 60 nM.

With `CC[C@]1(O)C[C@H]2CN(CCc3c([nH]c4ccccc34)[C@@](C(=O)OC)(c3cc4c(cc3OC)N(C)[C@@H]3[C@]45CCN4CCC[C@@](CC)(C[C@]3(O)C(=O)OC)[C@H]45)C2)C1`, the half-maximal inhibitory concentration (IC50) with HCT-116/VM46 was 4000 nM; with L1210 it was 660 nM; with HCT-116, 670 nM.

Consider `CC[C@]1(O)C[C@H]2CN(CCc3c([nH]c4ccccc34)[C@@](C(=O)OC)(c3cc4c(cc3OC)N(C)[C@H]3[C@@](O)(C(=O)OC)[C@H](OC(C)=O)[C@]5(CC)CCN6CCC[C@]43[C@@H]65)C2)C1`, for which the values for the IC50 in the assay with HCT-116/VM46, with L1210 and with HCT-116 were 450 nM, 7.2 nM and 6.5 nM, respectively. This compound also returned an inhibition on Tubulin (Sus scrofa) of 48.4%.
